Consider one compound from BindingDB's records for patent US9192603 (Vanderbilt University, 2015).

As a reminder, the EC50 is the midpoint of the concentration-response curve.

The target of this test is Metabotropic glutamate receptor 4 (Homo sapiens, UniProt Q14833). Put plainly: Receptor Activity Assay. Here is the method:
The disclosed compounds and compositions can be evaluated for their ability to act as a potentiator of metabotropic glutamate receptor activity, in particular mGluR4 activity, by any suitable known methodology known in the art. For example, Chinese Hamster Ovary (CHO) cells transfected with human mGluR4 or HEK cells co-transfected with rat mGluR4 and the G-protein regulated Inwardly Rectifying Potassium channel (GIRK) were plated in clear bottom assay plates for assay in a Hamamatsu FDSS Fluorometric Plate Reader. The cells were loaded with either a Ca2+-sensitive fluorescent dye or the thallium responsive dye and the plates were washed and placed into a suitable kinetic plate reader. For human mGluR4 assays, a fluorescence baseline was established for 3-5 seconds, the disclosed compounds were then added to the cells, and the response in cells was measured.

SMILES strings stand for the structures.

Chain of Metabotropic glutamate receptor 4 (Q14833 whole entry): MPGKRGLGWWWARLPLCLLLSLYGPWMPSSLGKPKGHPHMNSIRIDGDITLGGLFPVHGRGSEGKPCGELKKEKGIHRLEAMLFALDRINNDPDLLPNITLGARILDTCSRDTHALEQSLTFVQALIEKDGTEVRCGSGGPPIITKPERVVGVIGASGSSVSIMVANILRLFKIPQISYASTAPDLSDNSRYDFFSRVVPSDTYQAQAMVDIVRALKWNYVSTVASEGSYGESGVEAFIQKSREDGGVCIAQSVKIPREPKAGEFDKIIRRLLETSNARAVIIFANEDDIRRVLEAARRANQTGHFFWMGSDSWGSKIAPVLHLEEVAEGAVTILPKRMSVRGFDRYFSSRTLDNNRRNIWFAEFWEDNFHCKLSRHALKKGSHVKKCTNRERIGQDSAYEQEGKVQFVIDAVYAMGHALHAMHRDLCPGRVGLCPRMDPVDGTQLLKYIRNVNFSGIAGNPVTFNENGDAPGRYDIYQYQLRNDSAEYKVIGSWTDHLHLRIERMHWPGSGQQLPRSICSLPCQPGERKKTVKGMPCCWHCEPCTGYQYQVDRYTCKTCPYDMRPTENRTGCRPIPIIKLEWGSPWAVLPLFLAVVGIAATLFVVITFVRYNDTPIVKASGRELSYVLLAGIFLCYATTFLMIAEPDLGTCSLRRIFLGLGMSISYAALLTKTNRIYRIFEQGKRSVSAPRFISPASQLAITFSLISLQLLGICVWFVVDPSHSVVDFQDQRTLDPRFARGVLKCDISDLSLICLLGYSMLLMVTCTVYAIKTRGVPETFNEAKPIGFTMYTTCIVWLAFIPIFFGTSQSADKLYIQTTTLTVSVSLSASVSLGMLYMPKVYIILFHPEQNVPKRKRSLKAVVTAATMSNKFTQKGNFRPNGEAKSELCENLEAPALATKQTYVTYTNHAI

On to `CC(C)c1nc(NC(=O)c2ccccn2)sc1S(=O)(=O)Cc1ccc(F)cc1F` [US9192603, 65], for which the EC50 is greater than 10 µM.
